Measured values as given in patent publication US7029878B2, “Melanin concentrating hormone receptor chimeric and fusion proteins” (Merck & Co., Inc., priority 2000, dated 2006).
“And” between values parts separate entries of the source, which are not always exact repeats. Identical values can stand only once.

Tests used:
[1] = molecular target: T1, HuLong/mMCH1R-1-EGFP (human long form/mouse species chimeric MCH1R-1-EGFP) (Homo sapiens, UniProt Q99705, A336T/R230K/V159M); test: cAMP production (FlashPlate), transiently transfected CHO cells stimulated with human MCH; format: cell-based; details: HuLong/mMCH1R-1-EGFP vs wild-type human MCH1R long form; transient CHO
T1 construct: ID; NO; 14 (human long form/mouse species chimeric MCH1R-linker-EGFP); 12 amino acid linker […]; expressed in transfected cells; host or cells: CHO (transient) and HEK293 Aequorin (transient)
Experimental: Both HEK293 Aequorin (National Institutes of Health) and CHO mammalian cell lines were transiently transfected with the various MCH1R/GFP variant fusion constructs, as well as the appropriate control constructs. Transfection was performed using Lipofectamine 2000 (Gibco BRL) per the manufacturer recommended protocol. […] Aequorin bioluminescence is a representative measure of intracellular Ca^2+ mobilization. cAMP production was measured with the Adenylyl Cyclase Activation FlashPlate Assay (NEN Life Science Products, Inc.).

mMCH-1R-EGFP = test: cAMP flashplate assay of stable CHO cell clones; format: cell-based, mouse; details: human MCH, 15 minutes at 37° C., 10 μM forskolin; individual stable CHO clones; FIG. 2
Source text: FIG. 2 illustrates a cAMP flashplate assay of CHO cell clones stably expressing mMCH-1R-EGFP. […] Cells were then lysed and assayed for bound [^125I]cAMP.
(§1) Wild-type CHO cells were transfected using SuperFect (Qiag.en) and either mouse MCH-1R-EGFP or human short/mouse species chimeric MCH-1R-EGFP. Forty-eight hours after transfection, transfected cells were subjected to positive selection for approximately ten days in media containing G418. Following selection, MCH-1R-EGFP expressing CHO cells were bulk sorted by Fluorescence Assisted Cell Sorting (FACS) for one or two rounds on the basis of fluorescence intensity to increase the population of cells expressing EGFP. Following bulk sorts, individual clones of varying fluorescence intensities were isolated by FACS and expanded.
The functional activity of these clones was evaluated with the cAMP Flashplate Assay (FIGS. 2 and 3).

mouse MCH-1R-EGFP = test: SPA-based Binding Assay, CHO cell membranes, [125I]Phe13Tyr19-MCH; details: displacement of [125I]Phe13Tyr19-MCH, stable CHO cell membranes
Source text: as §1
Fluorometric Microvolume Assay Technology (FMAT) was initially employed to screen a large number of stable clones by whole cell binding with a fluorescently labeled MCH derivative (SymJz-MCH, PE Biosystems) to identify those clones with good specific binding windows.

human MCH
EC50 fold higher than that of corresponding wild-type control [1]: approximately 7.5 fold | EC50 (mMCH-1R-EGFP): 0.111 nM and 0.126 nM and 0.129 nM and 0.23 nM | IC50 with MCH compared with wild-type human short isoform (mouse MCH-1R-EGFP): indistinguishable
